{"source": "patent US8729052B2", "about": "“Composition for the prevention and treatment of alopecia, or for hair growth” (Phytos Co., Ltd., priority 2008, dated 2014)", "key": {"[1]": {"test_system": "Balb/c mice, depilated area", "assay": "Test for hair growth in Balb/c mice (2), once a day for four weeks", "type": "in vivo", "conditions": "applied once a day for four weeks", "excerpt": "Balb/c mice, 5-6 weeks old, were purchased and shaved on the side to remove hair partially, followed by applying a depilatory cream to the shaved area to remove hair therefrom completely. The mice which were not completely depilated were excluded from the test. The suitable mice were randomly housed in cages at a population of three per cage. A total of five cages were employed.\nThe mice were left for one day after hair removal, and then the depilated area was coated once a day with the NAPS-1-P-containing liposomes prepared in Example 1. A total of 14 rounds of application were conducted. Hair growth was compared between treated groups and non-treated groups.\nThe NAPS-1-P 0.5%-containing liposomes (Example 1), the NAPS-1-P 1.0%-containing liposomes (Example 2), and the PhS-1-P 0.5%-containing liposomes (Example 4) were tested for hair growth activity in the same manner as in Experimental Example 1, with the exception that they were applied once a day for four weeks. In this context, Rogaine 5% (minoxidil 5% solution) was used as a positive control."}, "[2]": {"test_system": "CAM (chorioallantoic membrane)", "assay": "Test for angiogenic activity, CAM (chorioallantoic membrane) assay", "type": "in vivo, chicken", "conditions": "for Angiogenic activity compared to the control: CAM assay, Table 3 and FIG. 5", "experimental": "NAPS-1-P 0.5%-containing liposomes and the PhS-1-P 0.5%-containing liposomes, respectively prepared in Examples 1 and 4, were assayed for angiogenesis, with the use of phosphate buffered saline as a negative control, sphingosine-1-phosphate (PS-1-P) as a positive control, and the angiogenesis inhibitor trimethyl phytosphingosine (TMP) as a suppressive control.\nFor angiogenesis assay, CAM (chorioallantoic membrane) was used as a model. CAM from developing chicken eggs is routinely used in biological and biomedical research to investigate angiogenesis.\nFertile hen's eggs which were within one day after being laid, were purchased. Three days later, 6 mL of the white was removed from the fertile hen's eggs using a syringe, as illustrated in i of FIG. 4. Afterward, the eggs were opened at the top, as illustrated in ii of FIG. 4. From three days after egg-laying, the embryo started to develop. The membrane surrounding the embryo is CAM. Then, a cover slip on which a test drug was dropwise loaded and dried was placed on CAM, as illustrated in iii of FIG. 4. After the lapse of three days, the eggs were examined for drug-induced angiogenesis under a microscope, as illustrated in iv of FIG. 4."}, "[3]": {"conditions": "microscopic observation three days after placing test drug on CAM"}}, "note": "Entries after “also recorded” stand apart in the source; their conditions may differ.", "data": [{"compound": "CCCCCCCCCCCCCC[C@@H](O)[C@@H](O)[C@H](COP(=O)(O)O)NC(C)=O", "note": "[NAPS-1-P, N-acetylphytosphingosine-1-phosphate]", "values": [{"measurement": "Hair growth promoting activity, comparison between substances, concentrations or with minoxidil 5% solution (FIGS. 2 and 3)", "setting": "[1]", "value": "superior of NAPS-1-P to PhS-1-P"}, {"measurement": "Angiogenic activity compared to the control", "setting": "[2]", "value": "significant angiogenic activity; also recorded: peak activity"}, {"measurement": "Angiogenesis results: count graded + (weakly promotive of angiogenesis)", "setting": "[2]; [3]", "value": 3}, {"measurement": "Angiogenesis results: count graded ++ (highly promotive of angiogenesis)", "setting": "[2]; [3]", "value": 7}]}, {"compound": "CCCCCCCCCCCCC/C=C/[C@@H](O)[C@@H](N)COP(=O)(O)O", "note": "[PS-1-P, sphingosine-1-phosphate, reference compound]", "values": [{"measurement": "Angiogenesis results: count graded + (weakly promotive of angiogenesis)", "setting": "[2]; [3]", "value": 5}, {"measurement": "Angiogenesis results: count graded ++ (highly promotive of angiogenesis)", "setting": "[2]; [3]", "value": 4}, {"measurement": "Angiogenesis results: count graded +/− (insignificantly promotive of angiogenesis)", "setting": "[2]; [3]", "value": 1}]}, {"compound": "CCCCCCCCCCCCCC[C@@H](O)[C@@H](O)[C@@H](N)COP(=O)(O)O", "note": "[PhS-1-P, phytosphingosine-1-phosphate]", "values": [{"measurement": "Angiogenic activity compared to the control", "setting": "[2]", "value": "significant angiogenic activity"}, {"measurement": "Angiogenesis results: count graded + (weakly promotive of angiogenesis)", "setting": "[2]; [3]", "value": 5}, {"measurement": "Angiogenesis results: count graded ++ (highly promotive of angiogenesis)", "setting": "[2]; [3]", "value": 4}, {"measurement": "Angiogenesis results: count graded +/− (insignificantly promotive of angiogenesis)", "setting": "[2]; [3]", "value": 1}]}, {"compound": "trimethyl phytosphingosine [TMP, reference compound]", "values": [{"measurement": "Angiogenesis results: count graded − (weakly inhibitive of angiogenesis)", "setting": "[2]; [3]", "value": 2}, {"measurement": "Angiogenesis results: count graded −− (highly inhibitive of angiogenesis)", "setting": "[2]; [3]", "value": 8}]}]}
